pKi: −log10 of the molar value.

The values below come from patent US12194044B2, “Organic compounds” (priority 2016, dated 2025).

A short description of data set [1]: Pharmacokinetics in dogs, SL and SC, plasma parent and metabolite AUC. In kind it is in vivo, beagle dogs. Particulars: dog. As to the method: The pharmacokinetics of each compound is determined after both sublingual (SL) and subcutaneous (SC) administration in non-cross over sequential studies in dogs.
SC Administration: Six male beagle dogs between 2 and 5 years of age are randomized in two groups of three dogs each. […] Dogs in group 2 are administered the compound of Example 2 at a dose of 1 mg/kg (free base equivalent) in a 0.5% methylcellulose/distilled water vehicle. Administration is subcutaneous in the intrascapular region via a 22 or 23 gauge needle. Whole blood samples are collected via the dog's cephalic vein pre-dose, and at post-dose time-points 5, 15 and 30 minutes, 1, 2, 4, 6, 8 and 24 hours. Following a minimum 7-day washout period, the dogs are transferred to the sublingual portion of the study.
Dogs in group 2 are administered the compound of Example 2 at a dose of 1 mg/kg (free base equivalent) in a 0.5% methylcellulose/distilled water vehicle. The animals are anesthetized prior to administration of the dose using propofol (6 mg/kg) and anesthesia is maintained for 30 minutes using 3-4.5% isoflurane. Administration is sublingual and the dosage is applied for 30 minutes, then wiped off using unwoven gauze. Whole blood samples are collected via the dog's cephalic vein pre-dose, and at post-dose time-points 5, 15 and 30 minutes, 1, 2, 4, 6, 8, 24, 36 and 48 hours.
All blood samples are processed to plasma and analyzed for parent and metabolite concentrations using liquid chromatography-tandem mass spectrometry (LC-MS/MS). […] Area under the curve (AUC) of parent and metabolites based on plasma versus time data are calculated using Prism 5.04 software (GraphPad Software, Inc.).

The subject of data set [2] is serotonin receptor (e.g., 5-HT2A), dopamine receptor (e.g., D2) and serotonin transporter. The experiment in a line: Receptor binding studies, binding profile compared to Formula Q.
A short description of data set [3]: Pharmacokinetics in rats, PO and IV cross-over, plasma parent and metabolite AUC. In kind it is in vivo. Particulars: male, Sprague-Dawley, rat. On the procedure: The pharmacokinetics of each compound is determined after both oral (PO) and intravenous (IV) administration in cross-over studies in rats.
PO Administration: Six male Sprague-Dawley rats are divided into two 3-rat groups for PO administration of compound on day 1 of the study. […] Blood samples are collected at 0.25, 0.5, 1, 2, 4, 6, 8, 12 and 24-hours post dose and analyzed for plasma concentration of the administered compound and its metabolites.
IV Administration: Six male Sprague-Dawley rats are divided into two 3-rat groups for IV administration of compound on day 1 of the study. […] Blood samples are collected at 2 minutes, 5 minutes, 0.25, 0.5, 2, 4, 6, 8 and 12 hours post dose and analyzed for plasma concentration of the administered compound and its metabolites.
All blood samples are processed to plasma and analyzed for parent and metabolite concentrations using liquid chromatography-tandem mass spectrometry (LC-MS/MS). The metabolites analyzed include the N-demethylated amide compound Q-1 (discussed supra). Area under the curve (AUC) of parent and metabolites based on plasma versus time data are calculated using Prism 5.04 software (GraphPad Software, Inc.).

Data set [4] in a line: Measurement of parent and amide metabolite levels in mice after single oral dose. In kind it is in vivo. Particulars: for extent of amide formation compared to compound Q after normalizing for internal standard: normalized to internal standard. As to the method: The compound of Comparative Example 4 is used as an internal standard in each study in order to control for differences in the inherent rate of metabolism in each study's animal group. […] The maximum concentration, time to maximum concentration, and Area Under the Curve (AUC) for both the parent and the major amide metabolite is determined. […] Relative Amide Formation is thus calculated as follows for each Example X (i.e., Ex. 1, Ex. 2, Ex. 3 and Ex. Q): [formula]

Data set [5] has as its target T1, Serotonin 5-HT2A (Homo sapiens, UniProt P28223). The data set is described as follows: Receptor binding studies, inhibition of human serotonin 5-HT2A receptor. The settings on record: read-out: inhibition of the human serotonin 5-HT2A receptor.
Data set [6] has as its target T1, Serotonin 5-HT2A. The data set is described as follows: biochemical.
Data set [7] has as its target Dopamine D2 (Homo sapiens, UniProt P14416). The experiment in a line: Receptor activity Ki, dopamine D2. The class given is binding.
Data set [8] deals with Dopamine D1 (Homo sapiens, UniProt P21728). The experiment in a line: Receptor activity Ki, dopamine D1. The class given is binding.
Data set [9] has as its target Serotonin Transporter (Homo sapiens, UniProt P31645). The data set is described as follows: Receptor activity Ki, serotonin transporter. In kind it is binding.

T1 sequence (P28223 whole entry): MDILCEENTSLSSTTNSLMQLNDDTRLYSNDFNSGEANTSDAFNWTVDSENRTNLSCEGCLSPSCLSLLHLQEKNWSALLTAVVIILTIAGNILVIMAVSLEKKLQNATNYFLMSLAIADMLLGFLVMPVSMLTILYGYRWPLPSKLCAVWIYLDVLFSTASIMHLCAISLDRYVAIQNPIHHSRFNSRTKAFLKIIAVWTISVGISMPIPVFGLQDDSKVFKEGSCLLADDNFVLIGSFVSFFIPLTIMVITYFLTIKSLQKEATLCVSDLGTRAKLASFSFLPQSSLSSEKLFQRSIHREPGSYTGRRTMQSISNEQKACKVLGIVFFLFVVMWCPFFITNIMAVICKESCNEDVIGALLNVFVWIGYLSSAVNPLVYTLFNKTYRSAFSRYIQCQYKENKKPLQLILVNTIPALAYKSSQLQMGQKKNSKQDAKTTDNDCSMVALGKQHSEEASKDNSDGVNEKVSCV
Chain of Dopamine D2 (P14416 whole entry): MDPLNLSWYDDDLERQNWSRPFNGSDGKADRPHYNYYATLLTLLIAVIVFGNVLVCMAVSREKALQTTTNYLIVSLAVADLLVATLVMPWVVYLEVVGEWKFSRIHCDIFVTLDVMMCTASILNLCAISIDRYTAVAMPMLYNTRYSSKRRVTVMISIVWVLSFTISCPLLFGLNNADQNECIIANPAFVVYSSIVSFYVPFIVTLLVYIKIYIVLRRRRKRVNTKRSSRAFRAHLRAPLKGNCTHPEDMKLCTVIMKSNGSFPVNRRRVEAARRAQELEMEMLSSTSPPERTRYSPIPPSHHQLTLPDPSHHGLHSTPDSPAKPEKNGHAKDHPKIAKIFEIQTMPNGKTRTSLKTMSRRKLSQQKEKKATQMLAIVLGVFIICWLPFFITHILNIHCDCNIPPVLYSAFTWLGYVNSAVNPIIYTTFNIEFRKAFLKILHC
Chain of Serotonin Transporter (P31645 whole entry): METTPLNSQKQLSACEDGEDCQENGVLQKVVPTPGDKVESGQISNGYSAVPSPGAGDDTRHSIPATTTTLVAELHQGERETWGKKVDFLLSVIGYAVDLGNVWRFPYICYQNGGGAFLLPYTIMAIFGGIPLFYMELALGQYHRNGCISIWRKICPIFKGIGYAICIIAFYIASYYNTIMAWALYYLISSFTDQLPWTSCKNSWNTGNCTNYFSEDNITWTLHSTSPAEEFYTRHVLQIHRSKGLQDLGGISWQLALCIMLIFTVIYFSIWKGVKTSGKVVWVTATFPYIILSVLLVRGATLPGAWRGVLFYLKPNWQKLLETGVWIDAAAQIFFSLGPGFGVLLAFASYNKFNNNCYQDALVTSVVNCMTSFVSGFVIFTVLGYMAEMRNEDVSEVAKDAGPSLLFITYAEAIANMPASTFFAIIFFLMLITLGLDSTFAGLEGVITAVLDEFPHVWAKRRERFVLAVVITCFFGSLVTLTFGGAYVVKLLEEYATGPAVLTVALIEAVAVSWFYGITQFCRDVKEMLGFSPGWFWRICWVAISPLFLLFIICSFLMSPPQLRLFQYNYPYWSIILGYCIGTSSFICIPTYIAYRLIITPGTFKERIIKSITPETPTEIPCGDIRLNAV
Chain of Dopamine D1 (P21728 whole entry): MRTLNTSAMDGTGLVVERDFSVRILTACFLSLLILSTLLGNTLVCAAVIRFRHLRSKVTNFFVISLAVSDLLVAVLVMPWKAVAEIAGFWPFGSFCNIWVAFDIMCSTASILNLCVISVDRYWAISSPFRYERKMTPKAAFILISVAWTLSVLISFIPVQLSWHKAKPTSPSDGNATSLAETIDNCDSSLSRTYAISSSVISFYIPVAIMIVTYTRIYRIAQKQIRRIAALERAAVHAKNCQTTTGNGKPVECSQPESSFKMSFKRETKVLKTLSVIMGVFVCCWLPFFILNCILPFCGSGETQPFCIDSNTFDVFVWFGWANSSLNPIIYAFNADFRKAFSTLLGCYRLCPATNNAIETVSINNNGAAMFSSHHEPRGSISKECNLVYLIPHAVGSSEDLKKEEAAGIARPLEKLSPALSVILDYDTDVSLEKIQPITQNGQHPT

Regarding `[2H]C1([2H])CN2c3c(cccc3N1C)[C@@H]1CN(CCCC(=O)c3ccc(F)cc3)CC[C@@H]12` (stereo in doubt) [Example 2, 2,2-D2-1-(4-fluorophenyl)-4-((6bR,10aS)-3-methyl-2,3,6b,7,10,10a-hexahydro-1H-pyrido[3′,4′:4,5]pyrrolo[1,2,3-de]quinoxalin-8(9H)-yl)butan-1-one], in data set [1] (SL dosing), the “higher parent AUC compared to dosing of Formula Q” value is “about 72%”. Moreover, the “higher parent AUC for SL compared to SC” value in data set [1] (SL vs SC) was determined as 61%. In addition, the “receptor binding profile compared to Formula Q” value in data set [2] is “substantially the same receptor binding profile”. The AUC in data set [3] (iv, 1 mg/kg) is 257 ng·h/mL. In data set [3] (po, 10 mg/kg), the area under the curve (AUC) was found to be 58.5 ng·h/mL. Moreover, in data set [4], the “extent of conversion of the parent compound to the amide metabolite compared to Formula Q” value (from here on “extent of conversion … compared to Formula Q”) is listed as “considerably lower” and the “extent of amide formation compared to compound Q after normalizing for internal standard” value is listed as “significantly lower”. In data set [5], the inhibition at 0.1 µM was 98%.

Turning to `[2H]C([2H])([2H])N1CCN2c3c(cccc31)[C@@H]1CN(CCCC(=O)c3ccc(F)cc3)CC[C@@H]12` [Example 1, 1-(4-Fluorophenyl)-4-((6bR,10aS)-3-methyl-d3-2,3,6b,7,10,10a-hexahydro-1H-pyrido[3′,4′:4,5]pyrrolo[1,2,3-de]quinoxalin-8(9H)-yl)butan-1-one p-toluenesulfonate], in data set [2], the “receptor binding profile compared to Formula Q” value was “substantially the same receptor binding profile”. Besides, in data set [4], the “extent of conversion … compared to Formula Q” value is recorded as “considerably lower” and the “extent of amide formation compared to compound Q after normalizing for internal standard” value is “significantly lower”.

Take `[2H]C([2H])([2H])N1c2cccc3c2N(CC1([2H])[2H])[C@H]1CCN(CCCC(=O)c2ccc(F)cc2)C[C@@H]31` [Example 3, 2,2-D2-1-(4-fluorophenyl)-4-((6bR,10aS)-3-methyl-d3-2,3,6b,7,10,10a-hexahydro-1H-pyrido[3′,4′:4,5]pyrrolo[1,2,3-de]quinoxalin-8(9H)-yl)butan-1-one p-toluenesulfonate]: the “receptor binding profile compared to Formula Q” value in data set [2] was “substantially the same receptor binding profile”. Further, in [4], the “extent of conversion … compared to Formula Q” value is recorded as “considerably lower” and the “extent of amide formation compared to compound Q after normalizing for internal standard” value is listed as “significantly lower”.

Consider `O=C(CCCN1CC[C@H]2[C@@H](C1)c1cccc3c1N2CCN3)c1ccc(F)cc1` [Example Q-1A], for which the pKi in [6] was 8.70; in data set [7], 7.52; in data set [8], 6.96; in data set [9], 7.11 to 7.51.

As to `O=C1CN2c3c(cccc3[C@@H]3CN(CCCC(=O)c4ccc(F)cc4)CC[C@@H]32)N1` [Example Q-1], the pKi is 6.60 to 7.30 in data set [7] and less than 6.22 in data set [9].

With `CN1CCN2c3c(cccc31)[C@@H]1CN(CCCC(=O)c3ccc(F)cc3)CC[C@@H]12` [Formula Q, 4-((6bR,10aS)-3-methyl-2,3,6b,9,10,10a-hexahydro-1H-pyrido[3′,4′: 4,5]pyrrolo[1,2,3-de]quinoxalin-8(7H)-yl)-1-(4-fluorophenyl)-1-butanone, reference compound], in data set [1] (SL vs SC), the “less net AUC of parent compound, SL compared to SC administration” value was 10%. For the same molecule, the AUC in [3] (iv, 1 mg/kg) came out at 231 ng·h/mL; in data set [3] (po, 10 mg/kg), 56 ng·h/mL.
